Experiment in all cases: DTP human tumour cell line panel, 48 h
Test [1] relates to 786-0 renal.
The subject of test [2] is KM12 colon.
The subject of test [3] is NCI-H460 lung.
The subject of test [4] is OVCAR-5 ovarian.
In test [5] the test system is SF-539 CNS.
Test [6] deals with UACC-257 melanoma.
Test [7] deals with UACC-62 melanoma.
Test [8] deals with A498 renal.
Test [9] deals with MCF7 breast.
The subject of test [10] is MDA-MB-231 breast.
The subject of test [11] is BT-549 breast.

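Test compounds were applied to cells in 96-well plates for 48 hours at 5 doses. The concentration for 50% growth inhibition is given as GI50. Definition used: TGI = concentration required for complete inhibition of growth.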 *1 amine or outer side, *2 acyl side, *3 side chain or, on linkers, in order; H or OH if unused. Where a SMILES comes first, the peptide text is derived from it. Bridges are numbered along the chain shown (N, C = ends). Roman numbers before positions name the chains, in order. [ ]: non-standard residue; d: D form. Actinocin(9to1) = Cc1c2oc3c(C)ccc(C(=O)[*:1])c3nc-2c(C(=O)[*:2])c(N)c1=O; NMeV = CN[CH](C(=O)O)C(C)C; Sar = CNCC(=O)O Some results are limits rather than exact numbers.

The TGI is the concentration giving total growth inhibition. As to `CC(C)NCCNC(=O)c1ccccc1Nc1c(Cl)cccc1Cl`, the TGI in test [1] stood at 16 µM; in test [2] it was 36 µM; in test [3], 11 µM; in test [4] it was 20.4 µM; in test [5], 30.2 µM; in test [6] it was 22.3 µM. In addition, the TGI in test [7] worked out at 30.1 µM.
With `COC(C[C@H]1CCCC[C@]1(O)/C(=C\CO[Si](C(C)C)(C(C)C)C(C)C)Sc1ccccc1)OC`, the TGI was > 100 µM in test [1]; > 100 µM in test [8]; > 100 µM in test [2]; > 100 µM in test [9]; 49.8 µM in test [10]; > 100 µM in [3]. Also, the TGI in test [4], in [6] and in test [7] was > 100 µM each time.
For `COc1ccc(C(=O)/C=C/c2ccc(OCCCOc3ccc(/C=C/C(=O)c4ccc(OC)c(OC)c4)cc3)cc2)cc1OC`, the TGI in test [1], in test [2], in test [9], in test [10], in test [3] and in [5] was > 100 µM in each case. Further, the TGI in test [6] and in test [7] was > 100 µM throughout.
Turning to `N#CC(NNC(=O)c1ccccc1O)c1ccc(O)cc1` (configuration not stated), the TGI in test [1], in [2], in [3], in test [4], in [5] and in test [6] was > 100 µM in each case. The compound also displayed a TGI in [7] of 5.97 µM.
`CN1CCCC(OC(=O)c2cc3cc(CCl)ccc3oc2=O)C1` (configuration not stated): the TGI turned out to be 58.4 µM in test [1]; 49.2 µM in [11]; 68.3 µM in [2]; 50.1 µM in [9]; 52.1 µM in [10]; 44.9 µM in test [3]. Besides, the TGI in test [4] is 43.4 µM; in test [5], > 100 µM; in test [6], 40.2 µM; in test [7], 31.6 µM.
For `Nc1cc2ncnc(Nc3cccc(Br)c3)c2cn1`, the TGI was > 100 µM in test [1]; 36.1 µM in test [8]; > 100 µM in [11]; 63.9 µM in test [2]; > 100 µM in [10]; > 100 µM in [3]. The TGI in [4], in [5], in test [6] and in test [7] was > 100 µM each time.
As to `COc1ccc(/C=N/N=C(\N)NO)c(OC)c1OC`, the TGI in [1] is > 100 µM; in test [8], 77.6 µM; in test [2] it was 52.9 µM; in test [9] it was > 100 µM; in test [10], > 100 µM; in test [3], > 100 µM. Moreover, the TGI in test [4] was > 100 µM; in [5], 61.7 µM; in test [7], > 100 µM.
Regarding `CCOC(=O)c1c(SCCN2CCCCC2)n(-c2ccccc2)c(=S)n(-c2ccccc2)c1=O`, the TGI was 28.1 µM in [1]; 31.1 µM in [11]; 35 µM in test [2]; 18.3 µM in [9]; 38.4 µM in test [10]; > 100 µM in test [3]. The TGI in [4] was > 100 µM; in [6], 17.1 µM; in [7], 68.9 µM.
Turning to `CN1C(=O)C(CCO)(C(C)(C)C)c2ccccc21` (configuration not stated), the TGI in [1], in [2], in test [9], in test [10], in [3] and in test [4] was > 100 µM throughout. Besides, the TGI in test [6] and in [7] was > 100 µM throughout.
Take `C=C1CN=C(Nc2ccc(F)cc2F)S1`: the TGI in test [1], in [8], in [2], in test [9], in [10] and in [3] was > 100 µM each time. The TGI in test [4], in [5] and in test [6] was > 100 µM in each case.
In the case of `O=c1[nH]nc(N/N=C\c2ccc(Cl)cc2)c2ccccc12`, the TGI in test [1] was found to be 30.6 µM; in test [8], 51.2 µM; in test [2], 52.3 µM; in [9], 64 µM; in [10] it was 43.7 µM; in test [3], 47.9 µM. Besides, the TGI was found to be 31.8 µM in test [4], 47.6 µM in test [5], 49.3 µM in [6] and 39.4 µM in test [7].
As for `Cc1c(Cl)c(=O)oc2cc(OCC(O)COC(C)C)ccc12` (configuration not stated), the TGI was > 100 µM in [1]; > 100 µM in [2]; 65.3 µM in test [9]; > 100 µM in [3]; > 100 µM in test [4]; > 100 µM in [6]. Further, the TGI in [7] is > 100 µM.
Take `COC(C/C=C\C=C\CC/C=C/CC(C)/C=C/C(=C\C(=O)O)CC(=O)O)/C(C)=C\C=C(/C)C(=O)O` (configuration not stated): the TGI in [8], in test [11], in [2], in test [10], in test [3] and in test [4] was > 100 µM throughout. In addition, the TGI in test [6] and in [7] was > 100 µM each time.
For `COc1ccccc1NC(=O)CSC(N)=O`, the TGI is 36.6 µM in test [1]; > 100 µM in [8]; > 100 µM in test [2]; > 100 µM in [3]; > 100 µM in test [4]; 70.4 µM in test [5]. In addition, the results for the TGI in [6] and in [7] were > 100 µM and 68.3 µM, respectively.
Regarding `CCC(=O)Nc1ccc(N2C(=O)/C(=C/c3ccc(O)c(OC)c3)N=C2c2ccccc2)cc1`, the TGI in test [1] is 95.6 µM; in test [8], 36.6 µM; in test [11] it was 44.9 µM; in test [2] it was > 100 µM; in test [9], > 100 µM; in test [3], > 100 µM. The TGI in [4] is > 100 µM; in test [5], > 100 µM; in [6], 71.5 µM; in test [7] it was > 100 µM.
As for `Cc1ccc(Cl)c2c(=O)cc(-c3ccccc3)[nH]c12`, the TGI in test [1], in [2], in [3], in [4], in test [5] and in [6] was > 100 µM each time. The TGI in test [7] was > 100 µM.
Consider `CCCCCCCCCCC[N+]1(Cc2ccccc2)CC2CCN(Cc3ccccc3)CC2C1` (configuration not stated), for which the TGI was determined as 2.21 µM in test [1]; 2.88 µM in test [8]; 1.4 µM in test [11]; 0.902 µM in test [2]; 1.62 µM in [9]; 2.58 µM in [3]. Further, the TGI in [4] worked out at 2.9 µM; in test [5], 2.45 µM; in test [6], 1.14 µM.
With `O=[N+]([O-])c1cccc([N+](=O)[O-])c1Cl`, the TGI is > 100 µM in test [1]; 38.8 µM in test [8]; 29.5 µM in [2]; > 100 µM in test [9]; 51.7 µM in test [10]; > 100 µM in test [3]. The TGI worked out at 43.1 µM in test [4], 35 µM in [5], 23.6 µM in test [6] and 42.9 µM in test [7].
`COc1ccc(C[C@H]2COC(=O)[C@@H]2Cc2ccccc2)cc1OC`: the TGI in [1], in test [8], in test [2], in [9], in test [10] and in test [3] was > 100 µM in each case. In addition, the TGI in [4] and in [6] was > 100 µM throughout.
As to `O=c1oc2ccccc2c(O)c1C(c1ccc(O)cc1)c1c(O)c2ccccc2oc1=O`, the TGI in [1] was > 100 µM; in test [8], > 100 µM; in [11], > 100 µM; in [2], > 100 µM; in [10] it was 77.7 µM; in [3], > 100 µM. Further, the TGI in test [6] and in [7] was > 100 µM in each case.
Regarding `Cn1c(O)c(/C=N/c2ncccn2)c(=O)[nH]c1=O`, the TGI in test [1], in test [8], in test [2], in [9], in [10] and in test [3] was > 100 µM throughout. Further, the total growth inhibition concentration (TGI) in [4], in [5], in test [6] and in test [7] was > 100 µM throughout.
As for `CCOC(=O)/C(C1=N[C@H](C(=O)OCC)CS1)=C(\O)c1ccccc1`, the TGI in test [2], in [3], in test [4], in test [6] and in test [7] was > 100 µM throughout.
As to `COc1c(-c2ccc(F)cc2)oc2cc(O)cc(O)c2c1=O`, the TGI is 99.2 µM in test [1]; > 100 µM in [8]; 98.4 µM in test [2]; > 100 µM in test [9]; 43.9 µM in test [10]; 59.9 µM in test [3]. Besides, the TGI in test [4] is 80.5 µM; in test [5] it was 39.7 µM.
Broadly, the GI50 is the concentration that inhibits growth by half. As to `COc1ccc2c3c([nH]c2c1)-c1nc2ccccc2c(=O)n1CC3`, the TGI in test [1], in [2], in [9], in test [10], in test [3] and in [4] was > 25 µM in each case. For the same compound, the TGI in test [5] and in test [6] was > 25 µM each time. Also, in test [3], the GI50 is 1.38 µM.
As to `CC(=O)CCCCCCCCCCCC[C@@H]1CC[C@H](C)[C@H](O)N1`, the TGI in test [1], in test [2], in test [3], in [4], in [6] and in test [7] was > 100 µM in each case.
Take `Cc1c2oc3c(C)ccc(C(=O)NC4C(=O)NC(Cc5ccc(O)cc5)C(=O)N5CCCC5C(=O)N(C)CC(=O)N(C)C(C(C)C)C(=O)OC4C)c3nc-2c(C(=O)NC2C(=O)NC(Cc3ccc(O)cc3)C(=O)N3CCCC3C(=O)N(C)CC(=O)N(C)C(C(C)C)C(=O)OC2C)c(N)c1=O` (configuration not stated) (I: TYP[Sar][NMeV] / II: TYP[Sar][NMeV]; ester I:1-I:C, II:1-II:C; linker I:N-II:N via Actinocin(9to1); configuration not given here): the TGI was > 74.9 µM in test [1]; 56.1 µM in test [8]; > 100 µM in [2]; 14.6 µM in test [9]; > 66.9 µM in test [10]; > 100 µM in [3]. Also, the TGI in [4] is > 43.8 µM; in [5] it was > 100 µM; in [6] it was > 100 µM; in test [7], > 67 µM.
Consider `Cc1cc(=O)[nH]c(NN2C(Cl)C(=O)C2c2ccco2)n1` (configuration not stated), for which the TGI is > 100 µM in test [2]; > 100 µM in test [3]; > 100 µM in test [4]; 85.9 µM in test [5]; > 100 µM in test [6]; 63.6 µM in [7].
On to `Cc1ccc(C2(N3CCOCC3)OC(C)(C)c3cccc4cccc2c34)cc1` (configuration not stated), for which the TGI in test [1] amounted to 32.4 µM; in [8], 32.9 µM; in test [11] it was 33.6 µM; in test [2], 57.2 µM; in [9] it was 33.2 µM; in test [3] it was 30.2 µM. Also, the TGI is 34.4 µM in test [4], 34.8 µM in test [5], 34.6 µM in test [6] and 27.8 µM in test [7].
Regarding `Cc1cccc(=O)c([O-])c1.Cc1cccc(=O)c([O-])c1.Cc1cccc(=O)c([O-])c1.Cc1cccc(=O)c([O-])c1.[Th+4]`, the TGI was > 78.5 µM in test [1]; 81.6 µM in [8]; > 72.7 µM in test [2]; > 60.7 µM in test [3]; > 100 µM in test [4]; 54.3 µM in test [5]. For the same compound, the TGI in test [6] is > 63 µM; in test [7], 19.6 µM.
Consider `CCCCN(CCCC)C1=Nc2ccccc2-n2c(nnc2C(=O)OCC)C1`, for which the TGI in [1] is > 100 µM; in [2] it was > 100 µM; in test [9], > 100 µM; in test [10], > 100 µM; in [3] it was 89.4 µM; in [4] it was > 100 µM. Besides, the TGI in [5] is > 100 µM; in test [6] it was 90 µM; in test [7], > 100 µM.

The record behind these values is PubChem BioAssay (NCI).
